Activity calls are given as the source filed them. The calls are words filed in the database; no cut-off is given here.
How the values were obtained:
[1] = system: HL-60; assay: (§1) Antiproliferative activity against human HL60 cells assessed as cell survival at 25 uM incubated for 48 hrs by CCK8 assay; assay type: functional
[2] = Retention time of the compound by UPLC-ESI-MS method; assay type: physicochemical
[3] = as §1; assay type: functional; conditions: HL-60, 48 h, read-out: Survival
[4] = system: HL-60; assay: Induction of apoptosis in human HL60 cells assessed as induction of morphological changes at 25 uM incubated for 48 hrs by Hoechst-33342 staining assay; assay type: functional, cell-based
[5] = system: HL-60; assay: Induction of apoptosis in human HL60 cells at 25 uM incubated for 48 hrs by Giemsa staining assay; assay type: functional, cell-based

Row | Compound | Activity [1] | Retention_time [2] | viability at 25 µM [3] | Activity [4] | Activity [5]
1 | COc1c(O)ccc2c1O[C@H](c1ccc(O)c(O)c1)CC2=O | inactive | 18.52 min |  |  | 
2 | O=C(/C=C/c1ccc(O)c(O)c1)c1ccc(O)c(O)c1O | inactive | 20.14 min |  |  | 
3 | COc1c(O[C@@H]2O[C@H](CO)[C@@H](O)[C@H](O)[C@H]2O)ccc2c1O/C(=C\c1ccc(O)c(O)c1)C2=O | inactive | 16.07 min |  |  | 
4 | COc1c(O)ccc(C(=O)/C=C/c2ccc(O)c(O)c2)c1O | inactive | 30.97 min |  |  | 
5 | COc1c(O)ccc2c1O/C(=C\c1ccc(O)c(O)c1)C2=O | inactive | 25.04 min |  |  | 
6 | CC(=O)O[C@H]1C(=O)[C@@]2(C)[C@H]([C@H](OC(=O)c3ccccc3)[C@]3(O)C[C@H](OC(=O)[C@H](O)[C@@H](NC(=O)c4ccccc4)c4ccccc4)C(C)=C1C3(C)C)[C@]1(OC(C)=O)CO[C@@H]1C[C@@H]2O [PACLITAXEL] |  |  | 18.9% |  | 
7 | COc1ccc(/C=C/C(=O)c2ccc(O)c(OC)c2O)cc1O |  | 41.24 min | 23.8% | Active | Active
